ChEMBL document CHEMBL1201862, “PubChem BioAssay data set” (2004)
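Cultured in 96-well plates, cells were exposed to test compound for 48 hours across five concentrations. Abbreviation: GI50, concentration required for 50% inhibition of growth.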 Calls of active or inactive are those of the source. No stated cut-off is given here; in the data, active = GI50 up to about 1.1 µM and inactive = higher.

Experiments:
Assay in all cases: NCI tumour cell line growth inhibition, 48 h
[1] = tested on: U-251
[2] = tested on: UO-31
[3] = tested on: SR
[4] = tested on: RXF 393
[5] = tested on: SF-268
[6] = tested on: HCC 2998
[7] = tested on: NCI-H460
[8] = tested on: SF-539
[9] = tested on: HOP-62
[10] = tested on: SK-MEL-28
[11] = tested on: OVCAR-4
[12] = tested on: K562
[13] = tested on: BT-549
[14] = tested on: M14
[15] = tested on: SNB-75
[16] = tested on: MDA-N
[17] = tested on: UACC-257
[18] = tested on: SN12C
[19] = tested on: MDA-MB-231
[20] = tested on: NCI-H23

Measured: GI50

Cc1cc(S(=O)(=O)N=C2N(Cc3ccccc3)CCN2Cc2ccccc2)c(S)cc1Cl
inactive: [1] 54.8 µM | [2] 17.7 µM | [3] 95.9 µM | [4] 78.3 µM | [5] 36 µM | [6] > 100 µM | [7] 56.1 µM | [8] > 100 µM | [9] > 100 µM | [10] > 100 µM | [11] > 100 µM | [12] > 100 µM | [13] > 100 µM | [14] > 100 µM | [15] 69.8 µM | [16] > 100 µM | [17] > 100 µM | [18] > 100 µM | [19] > 100 µM | [20] > 100 µM

COC(=O)/C(C#N)=C1\NC(=O)CC(c2ccccc2)C1C#N (stereo unspecified)
inactive: [2] > 100 µM | [3] > 100 µM | [4] > 100 µM | [5] > 100 µM | [6] > 100 µM | [7] > 100 µM | [8] > 100 µM | [9] > 100 µM | [10] > 100 µM | [11] > 100 µM | [12] > 100 µM | [13] > 100 µM | [14] > 100 µM | [15] > 100 µM | [16] > 100 µM | [17] > 100 µM | [18] > 100 µM | [19] > 100 µM

CCN(CC)CCn1ncc2c3c(=O)c4cccnc4n(CCN(CC)CC)c3ccc21
inactive: [1] > 10 µM | [3] 6.98 µM | [4] > 10 µM | [5] 7.43 µM | [6] > 10 µM | [7] 6.18 µM | [8] 9.27 µM | [9] > 10 µM | [10] > 10 µM | [11] 4.44 µM | [12] > 10 µM | [13] > 10 µM | [14] > 10 µM | [15] 9.66 µM | [16] > 10 µM | [17] > 10 µM | [18] 8.87 µM | [19] > 10 µM | [20] > 10 µM

CCN(CC)c1ccc2cc(C(=O)Nc3ccccc3)c(=N)oc2c1
inactive: [1] > 100 µM | [2] > 100 µM | [3] > 100 µM | [4] > 100 µM | [5] > 100 µM | [6] > 100 µM | [7] > 100 µM | [8] > 100 µM | [9] > 100 µM | [10] > 100 µM | [11] > 100 µM | [12] > 100 µM | [13] > 100 µM | [14] > 100 µM | [15] > 100 µM | [16] > 100 µM | [17] > 100 µM | [18] > 100 µM | [19] > 100 µM
